This is an account of results in patent publication US20250375459A1, “METHODS FOR AMELIORATING COGNITIVE IMPAIRMENT USING BILE ACID DERIVATIVES” (INTERCEPT PHARMACEUTICALS, INC., priority 2022, published 2025).

Assay [1] has as its system C57 Blk/6 mice. Put plainly: Y-maze testing of spatial memory in aged mice cohort (non-cholestatic cognitive decline). In kind it is in vivo. The source says:
FIG. 1 is an illustration of an aged mice cohort study plan.
FIG. 2 is a bar graph showing the results of Y-maze testing on aged mice treated with ursodeoxycholic acid (URSO), obeticholic acid (OCA), or control at 11 and 14 months, according to the cohort study plan in FIG. 1.
(§1) Cognitive impairment is a clinical issue with age-related cognitive decline being a substantial problem in society. C57 Blk/6 mice were aged to 9 months when they started either 6 months of Ursodeoxycholic acid or Obeticholic acid therapy or were left to age naturally to 15 months. Between 9 and 15 months of age mice develop progressive cognitive decline, by 15 months, with a novel arm time of one third indicating complete loss of short-term spatial memory (FIG. 2). Y-maze testing was repeated on the animals in each group at 11 and 14 months (FIG. 2; left bars and right bars respectively). […] The effect was not only behavioral.

Assay [2] deals with C57 Blk/6 mice. Put plainly: Immunofluorescence analysis of neurons and neural progenitors in aged mice. In kind it is in vivo.
Text: FIG. 3 is a bar graph showing immunofluorescence analysis of aged mice treated with obeticholic acid (OCA), ursodeoxycholic acid (URSO), or no supplement (wild type or WT) ad libitum each at 15 months (15 mnth) vs. 9 months (9 mnth), according to the cohort study plan in FIG. 1.
as §1

For assay [3] the following is noted: preclinical data, given early in the disease course; cited from earlier work.
Where [4] appears, read: longer-term experiments, aged mice.

Regarding `CC[C@H]1[C@@H](O)[C@@H]2[C@H](CC[C@]3(C)[C@@H]([C@H](C)CCC(=O)O)CC[C@@H]23)[C@@]2(C)CC[C@@H](O)C[C@@H]12` [OCA, 3α,7α-dihydroxy-6α-ethyl-5β-cholan-24-oic acid], the “Y-maze spatial memory performance between ages 11 and 14 months” value in assay [1] (aged C57 Blk/6 mice, therapy started at 9 months, Y-maze at 11 and 14 months) was “significantly improved”. Also, the “non-cholestatic (age-related) cognitive decline, loss of short-term spatial memory” value in assay [1] (therapy given between 9 and 15 months of age in the diet) is given as “completely abrogated”. Moreover, the “SOX2+ neural progenitor population” value in assay [2] (compared to both aged matched groups, 15 months) was “significant increase”. Besides, the “NeuN+ neuron count, neuron loss between 9 and 15 months” value in assay [2] (immunofluorescence, supplement from 9 to 15 months, fed ad lib) was “no significant neuron loss”. In addition, in assay [2] (setting [4]), the neuronal precursors entry was “significant increase” and the “overall neuronal cell loss” value is recorded as “reversal”. Also, in assay [2] (wild-type (WT) mice, FIG. 3), the neurogenesis entry is recorded as “significantly increases” and the neuronal loss result is “slows”. Besides, in assay [3], the “cognitive dysfunction in cholestasis (e.g., PBC)” value was “reverse”.
